The supplement of paper PMC10307832

Key:
Assay in all cases: relative viability (nuclei count vs DMSO), 5 days (fraction); higher = more cells survive
Venetoclax + Trametinib = compound: CC1(C)CCC(CN2CCN(c3ccc(C(=O)NS(=O)(=O)c4ccc(NCC5CCOCC5)c([N+](=O)[O-])c4)c(Oc4cnc5[nH]ccc5c4)c3)CC2)=C(c2ccc(Cl)cc2)C1 [Venetoclax] + CC(=O)Nc1cccc(-n2c(=O)n(C3CC3)c(=O)c3c(Nc4ccc(I)cc4F)n(C)c(=O)c(C)c32)c1 [Trametinib] (partner 0.02 µM)
Outline: (§1)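 Medians of duplicate plates are given as relative viability. That measure is the nuclei count in treated wells divided by the count in vehicle wells. Counts were taken on 4× images of lung cancer cell lines in 1536-well plates, 5 days after pin-tool dosing the day after seeding with one drug alone or a fixed anchor-drug dose plus five library-drug doses (not always all listed) in √10 steps.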

Selumetinib = compound: Cn1cnc2c(F)c(Nc3ccc(Br)cc3Cl)c(C(=O)NOCCO)cc21 [Selumetinib]
Outline: (§2)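 Cells of lung cancer lines were placed in 1536-well plates and kept overnight at 37 °C. Pinning then delivered five library-drug doses (not always all listed), spaced by √10, onto plates anchored with vehicle, and the cells were left 5 days without changing medium. One step fixed, permeabilised and stained them with Hoechst, and MetaXpress counted nuclei in 4× images. Viability, as a median over plates, is treated-well nuclei divided by vehicle-well nuclei, with acceptance only at control CV below 25% and at least one doubling.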

Venetoclax = compound: CC1(C)CCC(CN2CCN(c3ccc(C(=O)NS(=O)(=O)c4ccc(NCC5CCOCC5)c([N+](=O)[O-])c4)c(Oc4cnc5[nH]ccc5c4)c3)CC2)=C(c2ccc(Cl)cc2)C1 [Venetoclax]
Outline: as §2

Selumetinib + Navitoclax = compound: Cn1cnc2c(F)c(Nc3ccc(Br)cc3Cl)c(C(=O)NOCCO)cc21 [Selumetinib] + CC1(C)CCC(c2ccc(Cl)cc2)=C(CN2CCN(c3ccc(C(=O)NS(=O)(=O)c4ccc(N[C@H](CCN5CCOCC5)CSc5ccccc5)c(S(=O)(=O)C(F)(F)F)c4)cc3)CC2)C1 [Navitoclax] (partner 0.5 µM)
Outline: as §1

| Cell Line | relative viability (Venetoclax + Trametinib; first compound 0.01 µM) | relative viability (Venetoclax + Trametinib; first compound 0.03162 µM) | relative viability (Venetoclax + Trametinib; first compound 0.1 µM) | relative viability (Venetoclax + Trametinib; first compound 0.3162 µM) | relative viability (Venetoclax + Trametinib; first compound 1 µM) | relative viability (Selumetinib; 0.02 µM) | relative viability (Selumetinib; 0.06325 µM) | relative viability (Selumetinib; 0.2 µM) | relative viability (Selumetinib; 0.6325 µM) | relative viability (Venetoclax; 0.01 µM) | relative viability (Venetoclax; 0.03162 µM) | relative viability (Venetoclax; 0.1 µM) | relative viability (Venetoclax; 0.3162 µM) | relative viability (Venetoclax; 1 µM) | relative viability (Selumetinib + Navitoclax; first compound 0.02 µM) | relative viability (Selumetinib + Navitoclax; first compound 0.06325 µM) | relative viability (Selumetinib + Navitoclax; first compound 0.2 µM) | relative viability (Selumetinib + Navitoclax; first compound 0.6325 µM) |
| --- | --- | --- | --- | --- | --- | --- | --- | --- | --- | --- | --- | --- | --- | --- | --- | --- | --- | --- |
| NCI-H2342 | 0.77 | 0.762 | 0.979 | 0.839 | 0.819 | 0.888 | 0.896 | 0.943 | 0.946 | 1 | 0.984 | 1.03 | 1 | 0.967 | – | – | – | – |
| SK-MES-1 | 0.615 | 0.636 | 0.536 | 0.526 | 0.554 | 0.921 | 0.885 | 0.698 | 0.527 | 0.961 | 1.05 | 0.993 | 1 | 0.902 | 1.41 | 1.32 | 1.26 | 1.06 |
| LCLC-97TM1 | 0.217 | 0.18 | 0.148 | 0.167 | 0.185 | 0.94 | 0.846 | 0.735 | 0.413 | 0.901 | 1.16 | 0.815 | 0.962 | 0.853 | 0.497 | 0.606 | 0.368 | 0.309 |
| HCC-44 | 1.03 | 1.11 | 1.04 | 1.04 | 0.999 | 1 | 1.01 | 1.04 | 1.1 | 0.935 | 0.955 | 0.983 | 0.974 | 0.929 | 0.986 | 0.847 | 0.794 | 0.836 |
| 201T | 0.675 | 0.699 | 0.713 | 0.682 | 0.696 | 0.94 | 0.901 | 0.91 | 0.888 | 0.975 | 0.989 | 0.982 | 0.984 | 0.982 | 1.17 | 1.14 | 1.17 | 1.15 |
| HOP-62 | 0.44 | 0.341 | 0.366 | 0.442 | 0.39 | 1.02 | 0.897 | 0.886 | 0.549 | 1 | 1.05 | 0.989 | 0.973 | 0.927 | 1.01 | 0.997 | 0.929 | 0.517 |
| NCI-H661 | 0.528 | 0.606 | 0.538 | 0.525 | 0.532 | 1.01 | 0.954 | 0.979 | 1 | 0.964 | 1.07 | 0.949 | 0.995 | 0.966 | – | – | – | – |
| NCI-H2087 | 0.197 | 0.181 | 0.178 | 0.199 | 0.257 | 0.849 | 0.672 | 0.48 | 0.318 | 0.921 | 1.03 | 0.821 | 1.01 | 1.02 | 0.838 | 0.585 | 0.457 | 0.431 |
| NCI-H647 | 0.463 | 0.428 | 0.423 | 0.399 | 0.433 | 0.936 | 0.797 | 0.809 | 0.793 | 1.06 | 0.991 | 0.798 | 1 | 0.884 | 1.26 | 0.935 | 0.874 | 0.959 |
| SW 1573 | 0.571 | 0.612 | 0.486 | 0.603 | 0.545 | 0.882 | 0.814 | 0.754 | 0.833 | 0.974 | 0.985 | 0.911 | 0.969 | 0.877 | 0.965 | 0.853 | 0.716 | 0.729 |
| A-427 | 0.624 | 0.741 | 0.735 | 0.71 | 0.713 | 1.1 | 0.994 | 1.03 | 1.05 | 0.892 | 1.14 | 0.901 | 1.08 | 0.998 | 1.02 | 0.868 | 0.76 | 0.68 |
| NCI-H520 | 0.58 | 0.823 | – | 0.613 | 0.594 | 1.12 | 0.981 | 1.08 | 1.04 | 0.923 | 0.994 | 0.828 | 0.971 | 1 | 1.08 | 1.1 | 1.12 | 1.07 |
| NCI-H1755 | 0.713 | 0.765 | 0.768 | 0.715 | 0.736 | 0.952 | 0.963 | 0.916 | 0.922 | 0.996 | 1.04 | 0.977 | 0.995 | 0.967 | 1.03 | 0.986 | 0.961 | 0.948 |
| NCI-H1975 | 0.256 | 0.388 | 0.319 | 0.347 | 0.3 | 0.952 | 0.958 | 0.939 | 0.663 | 0.99 | 0.935 | 0.889 | 0.939 | 0.884 | 1.23 | 1.22 | 1.01 | 0.728 |
| Calu-6 | – | – | – | – | – | 1.04 | 0.777 | 0.677 | 0.478 | 1.03 | 1.06 | 0.985 | 0.991 | 0.973 | 0.727 | 0.513 | 0.355 | 0.234 |
